Laboratory results reported in patent publication US20240309014A1, “MACROCYCLIC COMPOUNDS AND USES THEREOF” (President and Fellows of Harvard College, priority 2017, published 2024).

Columns and labels:
[1] = test system: tubulin protein purified from porcine brain; experiment: Cell-free tubulin polymerization assay; type: biochemical; settings: final concentrations 0.625-10 μmol/L
Method: Tubulin Polymerization Assay kit was purchased from Cytoskeleton, Inc. (Cat.#BKO11P). The kit contained 1 bottle of lyophilized tubulin protein purified from porcine brain, 3 tubes of lyophilized GTP, 2 bottles of lyophilized assay buffer, and 1 bottle of tubulin glycerol buffer. Assay buffer was prepared by dissolving the contents in 10 mL of deionized and sterilized water. This solution contained 80 mmol/L piperazine-N,N′-bis[2-ethanesulfonic acid] sesquisodium salt, 2.0 mmol/L magnesium chloride, 0.5 mmol/L ethylene glycol-bis(2-amino-ethyl ether) N,N,N′,N-tetra-acetic acid, pH 6.9, and 10 μmol/L fluorescent reporter.
The buffer was stored at −70° C. until use. […]
In the tubulin polymerization assay, reaction mixture was prepared by mixing 820 µL of assay buffer, 17.6 μL of GTP stock solution, and 600 μL of tubulin glycerol buffer. […] Fluorescence emission at 460 nm (excitation wavelength at 360 nm) was measured every 2 minutes for 90 minutes using the SpectraMax® M5e microplate reader (Molecular Devices). Tubulin polymerization was followed by fluorescence enhancement due to the incorporation of a fluorescence reporter into microtubules as polymerization occurred. […]

[2] = test system: Tenascin-C and EDA-fibronectin; experiment: Effects on Tenascin-C and EDA-fibronectin in the FaDu subcutaneous model (FIG. 15); type: in vivo, nude mice; settings: Compound (1) 180 μg/kg + cetuximab 10 mg/kg on Day 1, tumors five days after, vs control tumors
Method: A human squamous cell carcinoma of the head and neck (SCCHN) cell line FaDu, which had been cultured in an RPMI-1640 medium containing 10% FBS, and penicillin-streptomycin (culture medium), was adjusted to a concentration of 5×10^7 cells/mL with culture medium to prepare a cell suspension. The cell suspension was inoculated in a volume of 100 μL into a subcutaneous part of a right flank of nude mice, 6 weeks of ages (CAnN.Cg-Foxnlnu/CrlCrlj, female, Charles River Laboratories Japan, Inc.). Ten days after cell inoculation, the mice were grouped such that averages of the tumor volumes were substantially equal among the groups. The experiment was conducted on groups each consisting of 5 mice. Compound (1) was dissolved in DMSO and a solution was stored in the freezer before use. […] Five days after the single administration, tumor samples were collected and fixed with IHC Zinc Fixative (BD Pharmingen) at 4° C. for 24 hr. Paraffin-embedded tissues were sectioned (3 μm), mounted on positively charged slides, and air-dried. Sections were deparaffinized, conditioned and the antigens were retrieved using microwave with 1 mM EDTA at pH 6.0 for Tenascin-C. For EDA-fibronectin, the antigens retrieval procedure was not necessary. […]

[3] = test system: human angiosarcoma CTG-2041 tumor fragments; experiment: CTG-2041 xenograft as monotherapy (FIG. 17); type: in vivo, mice; settings: 100 μg/kg i.v. Day 1 and Day 8
Method: Tumor fragments of human angiosarcoma CTG-2041 were implanted s.c. in the left flank of female mice. Tumor growth was monitored twice a week using digital caliper, so as to calculate the volume of the tumor in accordance with the following calculation formula: […]
When the volume of tumors reached approximately 200 mm^3, animals are matched by tumor volume into treatment or control groups and dosing initiated on Day 1. Each group was consisted with five mice. Compound (1) was dissolved in DMSO and a solution was stored in the freezer before use. Compound (1) (100 μg/kg) diluted in saline and intravenously injected on Day 1 and Day 8.

B-16 melanoma cells = settings: among natural Halichondrin compounds; cited from earlier work

| Structure (SMILES) | effect on tubulin polymerization [1] | expression levels of Tenascin-C and ED-A fibronectin [2] | antitumor activity [3] | anti-tumor activities against B-16 melanoma cells in vitro (B-16 melanoma cells) |
| --- | --- | --- | --- | --- |
| C=C1C[C@@H]2CC[C@@]34C[C@H]5O[C@H]6[C@@H](O3)[C@H]3O[C@H](CC[C@@H]3O[C@H]6C5O4)CC(=O)O[C@@H]3[C@@H](C)[C@@H]4O[C@@H]5C[C@]6(C[C@@H]7O[C@]8(C[C@H](C)[C@@H]9O[C@H](CN)[C@H](O)C[C@@H]9O8)C[C@H](C)[C@@H]7O6)O[C@@H]5C[C@@H]4O[C@H]3C[C@H]3O[C@@H](CC[C@@H]1O2)C[C@@H](C)C3=C (stereo in doubt) [Compound (1)] | inhibited tubulin polymerization in a concentration-dependent manner | reduced | tumor regression | – |
| C=C1C[C@@H]2CC[C@@]34C[C@H]5O[C@H]6[C@@H](O3)[C@H]3O[C@H](CC[C@@H]3O[C@H]6[C@H]5O4)CC(=O)O[C@@H]3[C@@H](C)[C@@H]4O[C@@H]5C[C@]6(C[C@@H]7O[C@]8(C[C@H](C)[C@@H]9O[C@H]([C@@H](O)C[C@@H](O)CO)C[C@@H]9O8)C[C@H](C)[C@@H]7O6)O[C@@H]5C[C@@H]4O[C@H]3C[C@H]3O[C@@H](CC[C@@H]1O2)C[C@@H](C)C3=C [Halichondrin B, reference compound] | – | – | – | strongest anti-tumor activities |
